According to patent US20220340566A1, “BENZYL AMINE-CONTAINING 5,6-HETEROAROMATIC COMPOUNDS USEFUL AGAINST MYCOBACTERIAL INFECTION” (priority 2019, published 2022):
Read-outs that look alike come from different tables or passages of the source.

Tests used:
[1] = Metabolic stability test in pooled human liver microsomes; type: in vitro ADME; settings: human liver microsomes 0.5 mg protein/mL, 1 mmol/L NADPH, 37° C., 30 minutes
Procedure: Using a commercially available pooled human liver microsomes, a compound of the present invention was reacted for a constant time, a remaining rate was calculated by comparing a reacted sample and an unreacted sample, thereby, a degree of metabolism in liver was assessed.
A reaction was performed (oxidative reaction) at 37° C. for 0 minute or 30 minutes in the presence of 1 mmol/L NADPH in 0.2 mL of a buffer (50 mmol/L Tris-HCl pH 7.4, 150 mmol/L potassium chloride, 10 mmol/L magnesium chloride) containing 0.5 mg protein/mL of human liver microsomes. After the reaction, 50 μL of the reaction solution was added to 100 μL of a methanol/acetonitrile=1/1 (v/v), mixed and centrifuged at 3000 rpm for 15 minutes. The compound of the present invention in the supernatant was quantified by LC/MS/MS or solid phase extraction (SPE)/MS, and a remaining amount of the compound of the present invention after the reaction was calculated, letting a compound amount at 0 minute reaction time to be 100%.

[2] = test system: Mycobacterium avium ATCC700898; assay: Determination of IC85 against M. avium (resazurin fluorescence); type: cell-based; settings: 37° C., 3 days incubation then resazurin, fluorescence one day later
[3] = Mycobacterium avium, ATCC700898, M. avium ATCC700898, CAMHB medium, read-out: IC85

| SMILES | MS_h_% (remaining amount of compound after reaction, 0 minute = 100%) [1] | IC85 [2, 3] | IC85 ([2]; M. avium ATCC700898, CAMHB medium) |
| --- | --- | --- | --- |
| CCc1nc2cc(F)ccn2c1C(=O)NCc1cc(F)c(N2CCN(c3ccc(OC(F)(F)F)cc3)[C@@H](C)C2)cc1F.Cl [Compound I-1-97] | 86% | 7.2 nM | – |
| Cc1ccn2nc(C)c(C(=O)NCc3ccc(C4CCN(c5ccc(OC(F)(F)F)cc5)CC4)c(F)c3)c2c1.Cl [Compound I-1-72] | 87% | 66 nM | – |
| CCc1nc2ccc(Cl)cn2c1C(=O)NCc1ccc(C2CCN(c3ccc(C(C)(C)C)cc3)CC2)cc1F.Cl [Compound I-1-144] | 67% | 17 nM | – |
| CCc1nc2cc(F)ccn2c1C(=O)NCc1ccc(C2CCN(c3ccc(OCC(F)(F)F)nc3)CC2)cc1F.Cl [Compound I-1-146] | 85% | 26 nM | – |
| CCCCOc1ccc(N2CCN(c3ccc(CNC(=O)c4c(CC)nc5ccc(Cl)cn45)c(F)c3)C[C@@H]2C)cc1.Cl [Compound I-1-103] | 64% | 19 nM | – |
| Cc1nc2ccc(Cl)cn2c1C(=O)NCc1ccc(N2C[C@H](C)N(c3ccc(OCC(F)(F)F)nc3)C[C@H]2C)c(F)c1.Cl [Compound I-1-137] | 91% | 100 nM | – |
| Cc1ccn2c(C(=O)NCc3ccc(C4CCN(c5ccc(OC(F)(F)F)cc5)CC4)c(F)c3)c(C)nc2c1 [Compound I-1-1] | 75% | 17 nM | – |
| COc1ccn2nc(C)c(C(=O)NCc3cc(F)c(N4CCN(c5ccc(OC(F)(F)F)cc5)[C@@H](C)C4)c(F)c3)c2c1.Cl [Compound I-1-129] | 80% | 6.8 nM | – |
| CCc1nc2ccc(Cl)cn2c1C(=O)NCc1ccc(C2CCN(c3ccc(OCC(C)C)cn3)CC2)c(F)c1.Cl [Compound I-1-79] | 65% | 36 nM | – |
| CCc1nc2ccc(Cl)cn2c1C(=O)NCc1ccc(-c2ccc(OC(F)(F)F)cc2)nc1 [Compound I-3-18] | 80.9% | 190 nM | – |
| CCc1nc2cc(F)ccn2c1C(=O)NCc1cc(F)c(N2CCN(c3ccc(OC(F)(F)F)cc3)[C@@H](C)C2)c(F)c1.Cl [Compound I-1-95] | 91% | 2.2 nM | – |
| CCc1nc2ccc(Cl)cn2c1C(=O)NCc1ccc(N2CCN(c3ccc(OC(F)(F)F)cc3)[C@@H](C)C2)c(F)c1 [Compound I-1-3] | 66% | 3 nM | – |
| CCc1nc2ccc(Cl)cn2c1C(=O)NCc1cc(F)c(N2CCC(c3ccc(OC(F)(F)F)cc3)CC2)c(F)c1.Cl [Compound I-1-66] | 83% | 11 nM | – |
| Cc1ccn2c(C(=O)NCc3ccc(N4CCN(c5ccc(OC(F)(F)F)cc5)[C@@H](C)C4)c(F)c3)c(C(F)(F)F)nc2c1 [Compound I-1-23] | 85% | 45 nM | – |
| CCc1nc2ccc(Cl)cn2c1C(=O)NCc1ccc(C2CCN(c3ccc(OCC4CC4)nc3)CC2)c(F)c1.Cl [Compound I-1-76] | 80% | 46 nM | – |
| Cc1nc2ccc(Cl)cn2c1C(=O)NCc1ccc(N2CCC(c3ccc(OC(F)(F)F)cc3)CC2)cc1 [Compound I-3-27] | 75.5% | 12 nM | – |
| CCc1nc2cc(F)ccn2c1C(=O)NCc1ccc(N2CCN(c3ccc(C(F)(F)F)cn3)[C@@H](C)C2)c(F)c1.Cl [Compound I-1-113] | 79% | 4.8 nM | – |
| Cc1cn2c(C(=O)NCc3ccc(-c4ccc(OCC(F)(F)F)cc4)c(F)c3)c(C)nc2s1 [Compound I-3-30] | 75.1% | 31 nM | – |
| Cc1ccn2c(C(=O)NCc3ccc(N4CCC(c5ccc(OC(F)(F)F)cc5)[C@@H](C)C4)c(F)c3)c(Cl)nc2c1.Cl (stereo partly drawn) [Compound I-1-58] | 89% | 77 nM | – |
| Cc1ccn2c(C(=O)NCc3ccc(N4CCN(c5ccc(OC(F)(F)F)cc5)[C@@H](C)C4)c(F)c3)c(C)nc2c1 [Compound I-1-2] | 86% | 21 nM | – |
| O=C(NCc1ccc(C2CCN(c3ccc(OC(F)(F)F)cc3)CC2)c(F)c1)c1c(C(F)(F)F)nc2ccc(Cl)cn12 [Compound I-1-17] | 63% | – | 13 nM |
